Data on four compounds can be found in patent US20030166656A1, “Therapeutic or preventive medicines for mood disorders or anxiety disorders” (priority 2003, published 2003).

One assay relates to male SD rats. Nature of the assay: Elevated plus-maze test in rats (antianxiety effect). The assay is classed as in vivo, rat. As to conditions: for antianxiety effect: overall conclusion in words, elevated plus-maze test. An excerpt:
(§1) The isoquinoline derivative rep-resented by formula (I) has a marked effect in the forced swim test, which is the animal model for mood disorder, and in the elevated plus-maze test, which is the animal model for anxiety disorder. Thus, the isoquinoline derivative can be used as a drug for curing or preventing mood disorder or anxiety disorder of mammal and, in particular, human beings. It may also be used in manufacturing of a medicament for curing or preventing mood disorder or anxiety disorder. The evaluation using the above-described animal models can be conducted by a method described in published references [Nature vol. 266, 730 (1977) or Jpn. J. Psychopharmacol vol. 15, 125 (1995)], but the method is not limited to this.
Assessment of Antianxiety Effect by the Elevated Plus-Maze Test in Rats
The experiment was conducted on male SD rats. In the elevated plus-maze test, the elevated plus-maze (manufactured by NeuroScience, Inc.) consisting of closed arms and open arms was used. In the experiment, a rat was placed on an open arm 30 minutes after the drug administration (subcutaneous administration), and the number of entries to the open and closed arms and the time spent in the open arms were measured. The test was conducted for 3 minutes. The rat was assumed to have made entries when all four legs have entered the arm. The ratio of the time spent in the open arms and the ratio of the entries to the open arms were calculated according to the following equations:
Ratio of the time spent in the open arms (%)={(time spent in the open arms)/(total time)}×100
Ratio of the entries to the open arms (%)={(number of entries to the open arms)/(total number of entries)}×100
The vertical axis on the left indicates the ratio of the time spent in the open arms (%) and the ratio of the entries to the open arms (%). The vertical axis on the right indicates the total number of entries. The horizontal axis indicates a control group and treatment groups. Open columns indicate the ratio of the time spent in the open arms (%) and hatched columns indicate the ratio of the entries to the open arms (%). Closed circles indicate the total number of entries. All data are indicated by average ±standard error. In a significance test, the difference was assumed to be significant at a significance level of 5% or less by Dunnett's multiple comparison. In the test, the drug is assumed to have an antianxiety effect when there are an increase in time spent on open arms and an increase in ratio of entries to open arms under administration.

The subject of a further assay is male ICR mice. Nature of the assay: Forced swim test in mice (antidepressant effect). Type of assay: in vivo, mouse. The note with it: for antidepressant effect: overall conclusion in words, forced swim test.
Text: as §1
Assessment of antidepressant effect by the forced swim test in mice
In the experiment, male ICR mice were used. In the forced swim test, the tank for forced swim used was a transparent cylindrical tank made of plastic (inner diameter: 10 cm, height: 30 cm), and water at 25° C. was contained up to 14 cm in height. A mouse was placed in water, and its swimming time during 2 to 6 minutes after placement was measured. The drug was subcutaneously administered 30 minutes before testing. The vertical axis indicates the swimming time (sec) during the measurement time (4 min). The open column indicates a saline-treated group and the hatched columns indicate Compound 1 treatment groups. All data are indicated by average ±standard error. In a significance test, the difference was assumed to be significant at a significance level of 5% or less by Dunnett's multiple comparison. In the test, the drug is assumed to have an antidepressant effect when there is an increase in swimming time under administration.

Where [1] appears, read: FIG. 1, treatment groups vs saline-treated control, s.c., Dunnett's multiple comparison, 5% level.

Regarding `Cc1c2c(nc3ccccc13)C[C@@]1(c3cccc(O)c3)CCN(C)C[C@@H]1C2` (relative stereo) [Compound 3, 2-methyl-4aα-(3-hydroxyphenyl)-11-methyl-1,2,3,4,4a,5,12,12aβ-octahydro-quinolino [2,3-g]isoquinoline], the antianxiety effect entry in the assay with male SD rats was “significant antianxiety effects”. Further, the antidepressant effect entry in the assay on male ICR mice is “significant antidepressant effect”.
In the case of `CN1CC[C@]2(c3cccc(O)c3)Cc3nc4ccccc4c(N)c3C[C@H]2C1` (relative stereo) [Compound 5, 2-methyl-4aα-(3-hydroxyphenyl)-11-amino-1,2,3,4,4a,5,12,12aβ-octahydro-quinolino,[2,3-g]isoquinoline], in the assay on male SD rats, the antianxiety effect entry was “significant antianxiety effects”. Further, in the assay with male ICR mice, the antidepressant effect entry is “significant antidepressant effect”.
As for `CN1CC[C@]2(c3cccc(O)c3)Cc3nc4ccccc4cc3C[C@@H]2C1` [Compound 1, (4aS,12aS)-2-methyl-4a-(3-hydroxyphenyl)-1,2,3,4,4a,5,12,12a-octahydroquinolino [2,3-g]isoquinoline], in the assay on male SD rats (setting [1]), the “ratio of the entries to open arms” value is listed as “dose-dependent significant increase” and the “time spent in open arms” value is reported as “dose-dependent significant increase”. Moreover, the antianxiety effect result in the assay with male SD rats is recorded as “confirmed to have an antianxiety effect”. The swimming time entry in the assay with male ICR mice (FIG. 2, treatment groups vs saline-treated control, s.c., Dunnett's multiple comparison, 5% level) is given as “dose-dependent significant increase”. For the same compound, the antidepressant effect result with male ICR mice is reported as “confirmed to have an antidepressant effect”.
On to `Oc1cccc([C@]23CCN(CCc4ccccc4)C[C@@H]2Cc2cc4ccccc4nc2C3)c1` (relative stereo) [Compound 6, 2-phenethyl-4aα-(3-hydroxyphenyl)-1,2,3,4,4a,5,12,12aβ-octahydro-quinolino [2,3-g]isoquinoline], for which, in the assay on male SD rats, the antianxiety effect result was “significant antianxiety effects”. Besides, the antidepressant effect entry in the assay with male ICR mice is “significant antidepressant effect”.
